# Laboratory results from PMC6010916, “Safety and pharmacokinetics of veliparib extended‐release in patients with advanced solid tumors: a phase I study” (Cancer Medicine, 2018).
# Experiments:
# [1] = Safety: treatment-emergent adverse events (NCI CTCAE version 4.0); format: in vivo, human
# Procedure: (§1) Adverse event (AE) severity was assessed according to the National Cancer Institute Common Terminology Criteria for Adverse Events (NCI CTCAE) version 4.0. Tumor evaluations were performed at screening, every 8 weeks after the first administration of study drug, and at the final visit using radiographic measurements from computed tomography or magnetic resonance imaging. Objective tumor responses were evaluated using RECIST version 1.1 criteria. Patients who received one or more doses of veliparib were included in the PK and safety analyses, as well as for evaluation of time to disease progression (TTP). Patients with one or more measurable lesion at baseline were included in the analysis of objective responses.
# [2] = system: ovarian and breast carcinoma; test: Objective tumor response (RECIST version 1.1); format: in vivo, human
# Procedure: as §1
# [3] = system: advanced solid tumors (ovarian, breast carcinoma); test: Time to disease progression (TTP); format: in vivo, human
# Procedure: as §1
# [4] = cited from earlier work
# [5] = cited from earlier work; remark: listed apart in the source
# [6] = system: non-small-cell lung cancer; triple-negative breast cancer; parameters: method as in earlier work; settings: combined with carboplatin and paclitaxel; preliminary results; cited from earlier work
# [7] = 16 evaluable patients with breast carcinoma (all BRCA mutation carriers)
# [8] = 42 evaluable breast and ovarian carcinoma patients with deleterious BRCA mutations
# [9] = 44 evaluable patients with ovarian carcinoma
# [10] = Deleterious BRCA mutation, Breast (n = 16)
# [11] = Deleterious BRCA mutation, Ovarian (n = 26)
# [12] = Deleterious BRCA mutation, Overall (N = 42)
compound,measurement,setting,value
C[C@]1(c2nc3c(C(N)=O)cccc3[nH]2)CCCN1 [veliparib],TEAE: Any AE,"[1]; Cycle 1, Part 3 (n = 12)",10 (83.3) n (%)
same,TEAE: At least possibly related to study drug,"[1]; Cycle 1, Part 3 (n = 12)",7 (58.3) n (%)
same,TEAE: NCI CTCAE grade 3 or 4,"[1]; Cycle 1, Part 3 (n = 12)",1 (8.3) n (%)
same,Any SAE,"[1]; Part 1, PK BA portion (n = 24)",2 (8.3) n (%)
same,SAE leading to discontinuation,"[1]; Part 1, PK BA portion (n = 24)",0 n (%)
same,SAE leading to dose interruption,"[1]; Part 1, PK BA portion (n = 24)",1 (4.2) n (%)
same,SAE leading to dose reduction,"[1]; Part 1, PK BA portion (n = 24)",0 n (%)
same,TEAE: Any AE,"[1]; Part 1, PK BA portion (n = 24)",17 (70.8) n (%)
same,TEAE: At least possibly related to study drug,"[1]; Part 1, PK BA portion (n = 24)",7 (29.2) n (%)
same,TEAE: NCI CTCAE grade 3 or 4,"[1]; Part 1, PK BA portion (n = 24)",2 (8.3) n (%)
same,TEAE: Abdominal pain,"[1]; Part 1, PK phase (n = 24)",3 (12.5) n (%)
same,TEAE: Anemia,"[1]; Part 1, PK phase (n = 24)",1 (4.2) n (%)
same,TEAE: Constipation,"[1]; Part 1, PK phase (n = 24)",0 n (%)
same,TEAE: Decreased appetite,"[1]; Part 1, PK phase (n = 24)",1 (4.2) n (%)
same,TEAE: Diarrhea,"[1]; Part 1, PK phase (n = 24)",2 (8.3) n (%)
same,TEAE: Fatigue,"[1]; Part 1, PK phase (n = 24)",0 n (%)
same,TEAE: Nausea,"[1]; Part 1, PK phase (n = 24)",4 (16.7) n (%)
same,"TEAE: Nausea, Grade 1","[1]; Part 1, PK phase (n = 24)",4 (16.7) n (%)
same,"TEAE: Nausea, Grade 2","[1]; Part 1, PK phase (n = 24)",0 n (%)
same,"TEAE: Nausea, Grade 3","[1]; Part 1, PK phase (n = 24)",0 n (%)
same,TEAE: Urinary tract infection,"[1]; Part 1, PK phase (n = 24)",0 n (%)
same,TEAE: Vomiting,"[1]; Part 1, PK phase (n = 24)",1 (4.2) n (%)
same,"TEAE: Vomiting, Grade 1","[1]; Part 1, PK phase (n = 24)",1 (4.2) n (%)
same,"TEAE: Vomiting, Grade 2","[1]; Part 1, PK phase (n = 24)",0 n (%)
same,"TEAE: Vomiting, Grade 3","[1]; Part 1, PK phase (n = 24)",0 n (%)
same,"grade 3 or 4 treatment-related anemia, patients",[1]; Part 1 extension/Part 2/Part 3,0/3/0
same,"grade 3 or 4 treatment-related nausea, patients",[1]; Part 1 extension/Part 2/Part 3,0/2/1
same,"grade 3 or 4 treatment-related thrombocytopenia, patients",[1]; Part 1 extension/Part 2/Part 3,2/3/0
same,TEAE: Abdominal pain,[1]; Total (N = 71),17 (23.9) n (%)
same,TEAE: Constipation,[1]; Total (N = 71),23 (32.4) n (%)
same,TEAE: Decreased appetite,[1]; Total (N = 71),15 (21.1) n (%)
same,TEAE: Diarrhea,[1]; Total (N = 71),23 (32.4) n (%)
same,TEAE: Fatigue,[1]; Total (N = 71),23 (32.4) n (%)
same,TEAE: Nausea,[1]; Total (N = 71),56 (78.9) n (%)
same,"TEAE: Nausea, Grade 1",[1]; Total (N = 71),45 (63.4) n (%)
same,"TEAE: Nausea, Grade 2",[1]; Total (N = 71),10 (14.1) n (%)
same,"TEAE: Nausea, Grade 3",[1]; Total (N = 71),3 (4.2) n (%)
same,TEAE: Urinary tract infection,[1]; Total (N = 71),15 (21.1) n (%)
same,TEAE: Vomiting,[1]; Total (N = 71),36 (50.7) n (%)
same,"TEAE: Vomiting, Grade 1",[1]; Total (N = 71),29 (40.8) n (%)
same,"TEAE: Vomiting, Grade 2",[1]; Total (N = 71),5 (7.0) n (%)
same,"TEAE: Vomiting, Grade 3",[1]; Total (N = 71),2 (2.8) n (%)
same,patients who experienced one or more TEAE,"[1]; all cycles, 71 patients",98.6%
same,patients with Grade 3 or 4 TEAEs,"[1]; all cycles, 71 patients",39.4%
same,patients who experienced one or more TEAE,"[1]; cycle 1, 71 patients",94.4%
same,patients with Grade 3 or 4 TEAEs,"[1]; cycle 1, 71 patients",18.3%
same,grade 3 or 4 treatment-related anemia,[1]; overall,4.2%
same,grade 3 or 4 treatment-related nausea,[1]; overall,4.2%
same,grade 3 or 4 treatment-related thrombocytopenia,[1]; overall,7.0%
same,"TEAE constipation, frequency","[1]; overall, 71 patients",32.4%
same,"TEAE diarrhea, frequency","[1]; overall, 71 patients",32.4%
same,"TEAE fatigue, frequency","[1]; overall, 71 patients",32.4%
same,"TEAE nausea, frequency","[1]; overall, 71 patients",78.9%
same,"TEAE vomiting, frequency","[1]; overall, 71 patients",50.7%
same,confirmed partial responses,[2]; [7],25.0%
same,partial response (confirmed and unconfirmed),[2]; [7],62.5%
same,confirmed partial responses,[2]; 16 patients with breast carcinoma and deleterious BRCA mutations,25.0%
same,confirmed partial responses,[2]; 26 patients with ovarian carcinoma and deleterious BRCA mutations,11.5%
same,confirmed partial responses,[2]; [8],16.7%
same,partial response (confirmed and unconfirmed),[2]; [8],40.5%
same,confirmed partial responses,[2]; [9],11.4%
same,partial response (confirmed and unconfirmed),[2]; [9],27.3%
same,confirmed overall ORR,[2]; 60 evaluable patients,15%
same,overall (confirmed and unconfirmed) ORR,[2]; 60 evaluable patients,36.7%
same,"CR, confirmed",[2]; Breast (n = 16),0 n (%)
same,"ORR (CR + PR), confirmed",[2]; Breast (n = 16),4 (25.0)— n/N (%) (95% CI)
same,"PR, confirmed",[2]; Breast (n = 16),4 (25.0) n (%)
same,"CR, confirmed",[2]; [10],0 n (%)
same,"ORR (CR + PR), confirmed",[2]; [10],4 (25.0) n/N (%)
same,"PR, confirmed",[2]; [10],4 (25.0) n (%)
same,"CR, confirmed",[2]; [11],0 n (%)
same,"ORR (CR + PR), confirmed",[2]; [11],3 (11.5) n/N (%)
same,"PR, confirmed",[2]; [11],3 (11.5) n (%)
same,"CR, confirmed",[2]; [12],0 n (%)
same,"PR, confirmed",[2]; [12],7 (16.7) n (%)
same,"CR, confirmed",[2]; Ovarian (n = 44),0 n (%)
same,"PR, confirmed",[2]; Ovarian (n = 44),5 (11.4) n (%)
same,"ORR (CR + PR), confirmed","[2]; Ovarian (n = 44), measurable lesion at baseline",5 (11.4)— n/N (%) (95% CI)
same,"CR, confirmed",[2]; Overall (N = 60),0 n (%)
same,"PR, confirmed",[2]; Overall (N = 60),9 (15.0) n (%)
same,"partial response (two confirmed, two unconfirmed)","[2]; nine patients with unknown BRCA status and measurable disease, all ovarian carcinoma",44.4%
same,objective responses,[2]; ovarian carcinoma patients with no BRCA mutation,No confirmed and one unconfirmed objective responses
same,6-month TTP rate,[3]; breast carcinoma (n = 17),53.5%
same,6-month TTP rate,"[3]; deleterious BRCA mutations, breast carcinoma",53.5%
same,6-month TTP rate,"[3]; deleterious BRCA mutations, ovarian carcinoma",35.7%
same,6-month TTP rate,[3]; ovarian carcinoma (n = 53),31.8%
same,6-month TTP rate (had not progressed at 6 months),[3]; overall (N = 71),38.1%
same,median TTP,[3]; overall population (N = 71),149 days
same,6-month TTP rate,[3]; patients with deleterious BRCA mutations,43.0%
same,6-month TTP rate,[3]; patients without BRCA mutations,22.9%
same,6-month TTP rate,[3]; unknown BRCA mutation status,27.8%
same,absorption,[4],rapid absorption
same,elimination,[4],predominant elimination through urinary excretion of the unchanged drug
same,oral bioavailability,[4],high oral bioavailability
same,RP2D,"[5]; single agent, phase I study",400 mg twice-daily (BID)
same,patients experiencing grade 3 or 4 neutropenia or thrombocytopenia,"[5]; single-agent therapy, phase I and II trials",2%
same,"patients with dose modifications, predominantly for nausea and vomiting",[5]; single-agent therapy,78%
same,primary endpoints (overall survival or complete pathologic response),[6],did not meet their primary endpoints
